Patent publication US5672609A, “Pyridine compounds, intermediates compositions and methods of use” (Eli Lilly and Company, priority 1996, dated 1997)
Where “and” joins values, the source holds several entries; their conditions need not be identical. Identical values can stand only once.

What was measured:
[1] = system: Uterine Eosinophil Peroxidase (EPO); test: Uterine Eosinophil Peroxidase (EPO) Assay (Table 1); format: in vivo, female Sprague Dawley rats; parameters: key to Uterine EPO (V. max): Vmax of absorbance increase at 450 nm, monitored over 1 min; conditions: for Uterine EPO (V. max): OVX rats, daily for 4 days
Text: (§1) Seventy-five day old female Sprague Dawley rats (weight range of 200 to 225 g) were obtained from Charles River Laboratories (Portage, Mich.). The animals were either bilaterally ovariectomized (OVX) or exposed to a sham surgical procedure at Charles River Laboratories, and then shipped after one week. Upon arrival, they were housed in metal hanging cages in groups of 3 or 4 per cage and had ad libitum access to food (calcium content approximately 0.5%) and water for one week. Room temperature was maintained at 22.2° ±1.7° C. with a minimum relative humidity of 40%. The photoperiod in the room was 12 hours light and 12 hours dark.
(§2) Dosing Regimen Tissue Collection. After a one week acclimation period (therefore, two weeks post-OVX) daily dosing with test compound was initiated. 17α-ethynyl estradiol or the test compound were given orally, unless otherwise stated, as a suspension in 1% carboxymethylcellulose or dissolved in 20% cyclodextrin. Animals were dosed daily for 4 days. Following the dosing regimen, animals were weighed and anesthetized with a ketamine: Xylazine (2:1, V:V) mixture and a blood sample was collected by cardiac puncture. The animals were then sacrificed by asphyxiation with CO2, the uterus was removed through a midline incision, and a wet uterine weight was determined.
Uterine Eosinomhil Peroxidase (EPO) Assay. Uteri were kept at 4° C. until time of enzymatic analysis. The uteri were then homogenized in 50 volumes of 50 mM Tris buffer (pH-8.0) containing 0.005% Triton X-100. Upon addition of 0.01% hydrogen peroxide and 10 mM O-phenylenediamine (final concentrations) in Tris buffer, increase in absorbance was monitored for one minute at 450 nm. The presence of eosinophils in the uterus is an indication of estrogenic activity of a compound. The maximal velocity of a 15 second interval was determined over the initial, linear portion of the reaction curve.
As is expressed in the below data, estrogenicity also was assessed by evaluating the response of eosinophil infiltration into the uterus.
(§3) The data presented in Table 1 below reflects the response of 5 to 6 rats per treatment.

Serum cholesterol [2] = test: Serum cholesterol in ovariectomized rats, 4-day oral dosing (Table 1); format: in vivo, female Sprague Dawley rats; conditions: OVX rats; for inhibition in vivo at 0.1 mg/kg / inhibition in vivo at 25 mg/kg / inhibition in vivo at 1 mg/kg / inhibition in vivo at 10 mg/kg / ED50: Rattus norvegicus, po, 96 h, daily for 4 days; for inhibition in vivo at 0.1 mg/kg: 0.1 mg/kg oral; for inhibition in vivo at 0.1 mg/kg / inhibition in vivo at 25 mg/kg / inhibition in vivo at 1 mg/kg / inhibition in vivo at 10 mg/kg: read-out: Serum Cholesterol (% dec. vs. OVX); for inhibition in vivo at 25 mg/kg: 25 mg/kg oral; for inhibition in vivo at 1 mg/kg: 1 mg/kg oral; for inhibition in vivo at 10 mg/kg: 10 mg/kg oral; for ED50: dose column in mg/kg, read-out: ED50 (effective dose to dec. serum chol. by 50%)
Text: as §1, §2
(§4) Cholesterol Analysis. Blood samples were allowed to clot at room temperature for 2 hours, and serum was obtained following centrifugation for 10 minutes at 3000 rpm. Serum cholesterol was determined using a Boehringer Mannheim Diagnostics high performance cholesterol assay. Briefly the cholesterol was oxidized to cholest-4-en-3-one and hydrogen peroxide. The hydrogen peroxide was then reacted with phenol and 4-aminophenazone in the presence of peroxidase to produce a p-quinone imine dye, which was read spectrophotometrically at 500 nm. Cholesterol concentration was then calculated against a standard curve. The entire assay was automated using a Biomek Automated Workstation.
(§5) Data presented in Table 1 below show comparative results among ovariectomized rats, rats treated with 17α-ethynyl estradiol (EE2; an orally available form of estrogen), and rats treated with certain compounds of the present invention. […] This uterine response to estrogen is well recognized in the art.
as §3

[3] = system: MCF-7 breast adenocarcinoma cells; test: MCF-7 Proliferation Assay; format: cell-based; conditions: Homo sapiens, MCF7, tritiated thymidine, 48 hours
Method: MCF-7 breast adenocarcinoma cells (ATCC HTB 22) were maintained in MEM (minimal essential medium, phenol red-free, Sigma, St. Louis, Mo.) supplemented with 10% fetal bovine serum (FBS) (V/V), L-glutamine (2 mM), sodium pyruvate (1 mM), HEPES {(N-[2-hydroxyethyl]piperazine-N'-[2-ethanesulfonic acid]10 mM}, non-essential amino acids and bovine insulin (1 ug/mL) (maintenance medium). Ten days prior to assay, MCF-7 cells were switched to maintenance medium supplemented with 10% dextran coated charcoal stripped fetal bovine serum (DCC-FBS) assay medium) in place of 10% FBS to deplete internal stores of steroids. MCF-7 cells were removed from maintenance flasks using cell dissociation medium (Ca++/Mg++free HBSS (phenol red-free) supplemented with 10 mM HEPES and 2 mM EDTA). Cells were washed twice with assay medium and adjusted to 80,000 cells/mL. Approximately 100 μL (8,000 cells) were added to flat-bottom microculture wells (Costar 3596) and incubated at 37° C. in a 5% CO2 humidified incubator for 48 hours to allow for cell adherence and equilibration after transfer. Serial dilutions of drugs or DMSO as a diluent control were prepared in assay medium and 50 μL transferred to triplicate microcultures followed by 50 μL assay medium for a final volume of 200μ. After an additional 48 hours at 37° C. in a 5% CO2 humidified incubator, microcultures were pulsed with tritiated thymidine (1 uCi/well) for 4 hours. Cultures were terminated by freezing at -70° C. for 24 hours followed by thawing and harvesting of microcultures using a Skatron Semiautomatic Cell Harvester. Samples were counted by liquid scintillation using a Wallac BetaPlace β counter. Results in Table 4 below show the IC50 for certain compounds of the present invention.

uterus [4] = test: Uterine weight in ovariectomized rats, 4-day oral dosing (Table 1); format: in vivo, female Sprague Dawley rats; conditions: OVX rats; for change in vivo at 0.1 mg/kg / change in vivo at 1 mg/kg / change in vivo at 10 mg/kg / change in vivo at 25 mg/kg: Rattus norvegicus, po, 96 h, daily for 4 days, read-out: Uterine Wt. (% inc. vs. OVX); for change in vivo at 0.1 mg/kg: 0.1 mg/kg oral; for change in vivo at 1 mg/kg: 1 mg/kg oral; for change in vivo at 10 mg/kg: 10 mg/kg oral; for change in vivo at 25 mg/kg: 25 mg/kg oral
Method: In the examples illustrating the methods, a post-menopausal model was used in which effects of different treatments upon circulating lipids were determined.
as §1, §2, §5, §3

uterus [5] = test: Osteoporosis Test: uterine weight (Table 2); format: in vivo; conditions: daily for 35 days, 6-month-old rats
Method: (§6) Following the General Preparation Procedure, infra, the rats were treated daily for 35 days (6 rats per treatment group) and sacrificed by carbon dioxide asphyxiation on the 36th day. The 35 day time period was sufficient to allow maximal reduction in bone density, measured as described herein. At the time of sacrifice, the uteri were removed, dissected free of extraneous tissue, and the fluid contents were expelled before determination of wet weight in order to confirm estrogen deficiency associated with complete ovariectomy. […] In accordance with the above procedures, the compound of Example 9 and ethynyl estradiol (EE2) in 20% hydroxypropyl β-cyclodextrin were orally administered to test animals. Distal femur metaphysis data presented in Tables 2 and 3 below are the results of compound treatments compared to intact and ovariectomized test animals. The rats in the Table 2 tests were 6 months of age rather than 75 days of age (at the beginning of the tests).

[6] = system: Femur (distal metaphysis); test: Osteoporosis Test: distal femur metaphysis x-ray image / bone density (Table 2); format: in vivo, rats; conditions: for Femur (x-ray image) (% protect.): daily for 35 days, 6-month-old rats; for bone density, in words: ovariectomized rats, oral, 35 days
Method: Following the General Preparation Procedure, infra, the rats were treated daily for 35 days (6 rats per treatment group) and sacrificed by carbon dioxide asphyxiation on the 36th day. The 35 day time period was sufficient to allow maximal reduction in bone density, measured as described herein. At the time of sacrifice, the uteri were removed, dissected free of extraneous tissue, and the fluid contents were expelled before determination of wet weight in order to confirm estrogen deficiency associated with complete ovariectomy. […] The right femurs were excised and digitilized x-rays generated and analyzed by an image analysis program (NIH image) at the distal metaphysis. The proximal aspect of the tibiae from these animals were also scanned by quantitative computed tomography. In accordance with the above procedures, the compound of Example 9 and ethynyl estradiol (EE2) in 20% hydroxypropyl β-cyclodextrin were orally administered to test animals. Distal femur metaphysis data presented in Tables 2 and 3 below are the results of compound treatments compared to intact and ovariectomized test animals. The rats in the Table 2 tests were 6 months of age rather than 75 days of age (at the beginning of the tests).

Serum cholesterol [7] = test: Osteoporosis Test: serum cholesterol (Table 2); format: in vivo; conditions: daily for 35 days, 6-month-old rats
Method: as §4
Following the General Preparation Procedure, infra, the rats were treated daily for 35 days (6 rats per treatment group) and sacrificed by carbon dioxide asphyxiation on the 36th day. The 35 day time period was sufficient to allow maximal reduction in bone density, measured as described herein. At the time of sacrifice, the uteri were removed, dissected free of extraneous tissue, and the fluid contents were expelled before determination of wet weight in order to confirm estrogen deficiency associated with complete ovariectomy.
In accordance with the above procedures, the compound of Example 9 and ethynyl estradiol (EE2) in 20% hydroxypropyl β-cyclodextrin were orally administered to test animals. Distal femur metaphysis data presented in Tables 2 and 3 below are the results of compound treatments compared to intact and ovariectomized test animals. The rats in the Table 2 tests were 6 months of age rather than 75 days of age (at the beginning of the tests).

[8] = Osteoporosis Test: body weight change (Table 2); format: in vivo; conditions: daily for 35 days, 6-month-old rats
Method: as §6

IC50 [3] [nM]	Compound	Uterine EPO (V. max) ([1]; 0.1 mg/kg oral)	Uterine EPO (V. max) ([1]; 25 mg/kg oral)	inhibition in vivo at 0.1 mg/kg (Serum cholesterol [2]) [%]	inhibition in vivo at 25 mg/kg (Serum cholesterol [2]) [%]	change in vivo at 0.1 mg/kg (uterus [4]) [%]	change in vivo at 1 mg/kg (uterus [4]) [%]	change in vivo at 10 mg/kg (uterus [4]) [%]	change in vivo at 25 mg/kg (uterus [4]) [%]	inhibition in vivo at 1 mg/kg (Serum cholesterol [2]) [%]	inhibition in vivo at 10 mg/kg (Serum cholesterol [2]) [%]	ED50 (Serum cholesterol [2]; oral) [mg/kg]	Uterine Wt. (% inc. vs. OVX) (uterus [5]; 0.1 mg/kg oral)	Femur (x-ray image) (% protect.) ([6]; 0.1 mg/kg oral)	bone density, in words [6]	Serum Chol. (% dec. vs. OVX) (Serum cholesterol [7]; 0.1 mg/kg oral)	other results
185	Oc1ccc(-c2ccc(-c3ccc(F)cc3)nc2-c2ccc(OCCN3CCCCC3)cc2)cc1 [Example 12, 2-[4-[2-(1-Piperidinyl)ethoxy]phenyl]-3-(4-hydroxyphenyl)-6-(4-fluorophenyl)pyridine]	5.9	67.9	26.2	49.9	9.8	4.2	76.2	68								
9	Oc1ccc(-c2ccc(-c3ccc(O)cc3)c(-c3ccc(OCCN4CCCC4)cc3)n2)cc1 [Example 14, 2-[4-[2-(1-Pyrrolidinyl)ethoxy]phenyl]-3,6-bis(4-hydroxyphenyl)pyridine]	2.4		11.9		6.3	-3.3	8.8		-16.5	-7.3	> 10					Uterine EPO (V. max) ([1]; 1 mg/kg oral): 4.5; Uterine EPO (V. max) ([1]; 10 mg/kg oral): 4.2
	C#CC1(O)CCC2C3CCc4cc(O)ccc4C3CCC21C (stereo not drawn) [EE2, 17α-ethynyl estradiol, reference compound]												128.3% and 226.1%	41.8% and 25.5%	prevented this loss	73.8% and 73.6%	eosinophil infiltration into the uterus, in words ([1]; ovariectomized rats): caused a substantial, expected increase in eosinophil infiltration; serum cholesterol, in words (Serum cholesterol [2]; oral, EE2 at 0.1 mg/kg/day): caused a decrease in serum cholesterol; uterine weight, in words (uterus [4]; oral, EE2 at 0.1 mg/kg/day): uterine weight was substantially greater than the uterine weight of ovariectomized control animals
	Cc1ccc(-c2ccc(O)cc2)c(-c2ccc(OCCN3CCCC3)cc2)n1 [Example 9, 2-[4-[2-(1-Pyrrolidinyl)ethoxy]phenyl]-3-(4-hydroxyphenyl)-6-methylpyridine]				58.5			26.3	24.3		49.2		-11%	-16.4%	elevated mean bone density in a general, dose-related manner	33.6%	Uterine Wt. (% inc. vs. OVX) (uterus [5]; 0.01 mg/kg oral): -3.5%; Uterine Wt. (% inc. vs. OVX) (uterus [5]; 25 mg/kg oral): -6.8%; Femur (x-ray image) (% protect.) ([6]; 0.01 mg/kg oral): -11.5%; Femur (x-ray image) (% protect.) ([6]; 25 mg/kg oral): 33.3%; Body Wt. Change (% dec. vs. OVX) ([8]; 0.01 mg/kg oral): -5%; Body Wt. Change (% dec. vs. OVX) ([8]; 0.1 mg/kg oral): -8.2%; Body Wt. Change (% dec. vs. OVX) ([8]; 25 mg/kg oral): 6.3%; Serum Chol. (% dec. vs. OVX) (Serum cholesterol [7]; 0.01 mg/kg oral): 44.4%; Serum Chol. (% dec. vs. OVX) (Serum cholesterol [7]; 1 mg/kg oral): 35.4% and 54.2%; Serum Chol. (% dec. vs. OVX) (Serum cholesterol [7]; 10 mg/kg oral): 35.4% and 42.2%; Serum Chol. (% dec. vs. OVX) (Serum cholesterol [7]; 25 mg/kg oral): 19.7%
470	COc1ccc(-c2ccc(-c3ccc(F)cc3)nc2-c2ccc(OCCN3CCCCC3)cc2)cc1 [Example 6, 2-[4-[2-(1-Piperidinyl)ethoxy]phenyl]-3-(4-methoxyphenyl)-6-(4-fluorophenyl)pyridine]	6.6	22.6	4	40.8	9.5		44.2	69.5	12.3		70					
